Here are results for 36 compounds from US8049037B2, “Sphingosine-1-phosphate (S1P) receptor antagonists and methods for use thereof” (Allergan, Inc., priority 2008, dated 2011).

The target of this assay is T1, human S1P3 receptor (Homo sapiens, UniProt Q99500).
T1 construct: expressed in transfected cells
As to the kind of experiment: S1P3 FLIPR Ca2+ assay in T24 cells stably expressing the human S1P3 receptor. The format is cell-based. The settings on record: for IC50: tested over 0.61 nM to 10,000 nM, read-out: IC50, activity potency human S1P3 receptor from FLIPR. How it is done:
The compounds of the invention were tested for S1P3 activity using the Flipr assay. The compounds may be assessed for ability to activate or block activation of the human S1P3 receptor in T24 cells stably expressing the human S1P3 receptor. Ten thousand cells/well are plated into 384-well poly-D-lysine coated plates one day prior to use. The growth media for the S1P3 receptor expressing cell line McCoy's 5A medium supplemented with 10% charcoal-treated fetal bovine serum (FBS), 1% antibiotic-antimycotic and 400 μg/mL genetecin. On the day of the experiment, the cells are washed twice Hank's Balanced Salt Solution supplemented with 20 mM HEPES (HBSS/Hepes buffer). The cells are then dye loaded with 2 μM Fluo-4 diluted in the HBSS/Hepes buffer with 1.25 mM Probenecid and incubated at 37° C. for 40 minutes. Extracellular dye is removed by washing the cell plates four times prior to placing the plates in the FLIPR (Fluorometric Imaging Plate Reader, Molecular Devices). Ligands are diluted in HBSS/Hepes buffer and prepared in 384-well microplates. The positive control, Sphingosine-1-phosphate (SIP), is diluted in HBSS/Hepes buffer with 4 mg/mL fatty acid free bovine serum albumin. The FLIPR transfers 12.5 μL from the ligand microplate to the cell plate and takes fluorescent measurements for 75 seconds, taking readings every second, and then for 2.5 minutes, taking readings every 10 seconds. Drugs are tested over the concentration range of 0.61 nM to 10,000 nM. Data for Ca^+2 responses are obtained in arbitrary fluorescence units and not translated into Ca^+2 concentrations. IC50 values are determined through a […] analysis using the Levenburg Marquardt algorithm.

T1 sequence (Q99500 whole entry): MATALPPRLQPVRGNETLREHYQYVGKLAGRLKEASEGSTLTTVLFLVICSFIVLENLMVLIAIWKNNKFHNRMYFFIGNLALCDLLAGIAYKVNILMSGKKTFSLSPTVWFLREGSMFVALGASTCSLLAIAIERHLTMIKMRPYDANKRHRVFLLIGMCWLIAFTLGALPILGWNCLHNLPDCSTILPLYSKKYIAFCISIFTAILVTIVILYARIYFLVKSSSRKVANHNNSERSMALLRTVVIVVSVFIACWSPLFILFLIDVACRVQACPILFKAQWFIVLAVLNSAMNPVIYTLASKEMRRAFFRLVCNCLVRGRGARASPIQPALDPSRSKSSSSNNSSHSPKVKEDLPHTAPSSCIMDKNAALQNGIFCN

In the case of `Cc1cccc(C)c1NC(NC(=O)c1ccco1)C(Cl)(Cl)Cl` (stereo not drawn) [N-{2,2,2-trichloro-1-[(2,6-dimethylphenyl)amino]ethyl}-2-furamide], the “% Antagonism, human S1P3 receptor from FLIPR” value (“% Antagonism” below) is recorded as 41% and the IC50 amounted to 1.47 µM.
`O=C(NC(Nc1ccc(Cl)cc1)C(Cl)(Cl)Cl)c1ccc(Br)o1` (stereo not drawn) [5-bromo-furan-2-carboxylic acid (2,2,2-trichloro-1-(4-chloro-phenylamino)-ethyl)-amide]: the “% Antagonism” value was 95% and the IC50 came out at 0.711 µM.
`O=C(NC(Nc1ccccc1)C(Cl)(Cl)Cl)c1ccc(Br)cc1` (stereo not drawn): the “% Antagonism” value is recorded as 97% and the half-inhibitory concentration (IC50) stood at 0.148 µM.
For `O=C(NC(Nc1ccc(F)cc1)C(Cl)(Cl)Cl)c1ccco1` (stereo not drawn) [N-{2,2,2-trichloro-1-[(4-fluorophenyl)amino]ethyl}-2-furamide], the “% Antagonism” value is on record as 99% and the IC50 is 0.498 µM.
Consider `O=C(NC(Nc1ccc(Cl)cc1)C(Cl)(Cl)Cl)c1ccc(Br)cn1` (single isomer, unassigned; (-)) [(−)-5-bromo-N-(2,2,2-trichloro-1-(4-chlorophenylamino)ethyl)picolinamide], for which the “% Antagonism” value worked out at 99% and the IC50 came to 0.0014 µM.
The corresponding values for `Cc1cc(F)ccc1NC(NC(=O)c1ccco1)C(Cl)(Cl)Cl` (stereo not drawn) [N-{2,2,2-trichloro-1-[(4-fluoro-2-methylphenyl)amino]ethyl}-2-furamide] are 95% and 1.18 µM.
For `O=C(NC(Nc1ccccc1C(F)(F)F)C(Cl)(Cl)Cl)c1ccco1` (stereo not drawn), in that order: 56% and 1.41 µM.
In the case of `Cc1ccc(NC(NC(=O)c2ccco2)C(Cl)(Cl)Cl)c(F)c1` (stereo not drawn) [N-{2,2,2-trichloro-1-[(2-fluoro-4-methylphenyl)amino]ethyl}-2-furamide], the “% Antagonism” value is listed as 102% and the IC50 turned out to be 1.4 µM.
`Cc1ccc(C(=O)NC(Nc2ccc(Cl)cc2)C(Br)(Br)Br)cc1` (stereo not drawn): the “% Antagonism” value came to 76% and the IC50 was found to be 1.14 µM.
`COc1ccc(C(=O)NC(Nc2ccc(Cl)cc2)C(Cl)(Cl)Cl)cc1` (stereo not drawn): the “% Antagonism” value was determined as 96% and the IC50 was found to be 0.278 µM.
For `O=C(NC(Nc1ccc(Cl)c(F)c1)C(Cl)(Cl)Cl)c1ccco1` (stereo not drawn) [Furan-2-carboxylic acid (2,2,2-trichloro-1-(4-chloro-3-fluoro-phenylamino)-ethyl)-amide], in that order: 98% and 0.291 µM.
In the case of `O=C(NC(Nc1ccc(Cl)cc1)C(F)(F)Cl)c1ccc(Br)cn1` (stereo not drawn) [5-Bromo-N-(2-chloro-1-(4-chlorophenylamino)-2,2-difluoroethyl)picolinamide], the “% Antagonism” value is listed as 99% and the IC50 worked out at 1.65 µM.
The corresponding values for `O=C(NC(Nc1ccc(Br)cc1)C(Cl)(Cl)Cl)c1ccc([N+](=O)[O-])cc1` (stereo not drawn) are 91% and 1.45 µM.
Turning to `O=C(NC(Nc1ccc(Cl)c(F)c1)C(Cl)(Cl)Cl)c1ccc(Br)cc1` (stereo not drawn) [4-bromo-N-[2,2,2-trichloro-1-(4-chloro-3-fluoro-phenylamino)-ethyl]-benzamide], the “% Antagonism” value worked out at 95% and the half-inhibitory concentration (IC50) stood at 0.11 µM.
Take `Cc1cc(NC(NC(=O)c2ccco2)C(Cl)(Cl)Cl)ccc1F` (stereo not drawn) [N-{2,2,2-trichloro-1-[(4-fluoro-3-methylphenyl)amino]ethyl}-2-furamide]: the “% Antagonism” value is given as 99% and the IC50 was determined as 0.43 µM.
As for `O=C(NC(Nc1ccc(Cl)cc1)C(Cl)(Cl)Cl)c1ccc(Br)cn1` (stereo not drawn) [5-bromo-N-(2,2,2-trichloro-1-(4-chlorophenylamino)ethyl)picolinamide], the “% Antagonism” value is 99% and the IC50 came out at 0.002 µM.
Regarding `O=C(NC(Nc1ccc(Cl)cc1)C(F)(F)F)c1ccc(Br)cc1` (stereo not drawn) [4-bromo-N-[1-(4-chlorophenylamino)-2,2,2-trifluoro-ethyl]-benzamide], the “% Antagonism” value is 100% and the IC50 is 2.99 µM.
Consider `O=C(NC(Nc1ccc(Cl)cc1)C(Cl)(Cl)Cl)c1ccc(Br)nc1` (stereo not drawn) [6-bromo-N-(2,2,2-trichloro-1-(4-chlorophenylamino)ethyl)nicotinamide], for which the “% Antagonism” value is on record as 97% and the IC50 turned out to be 0.245 µM.
Consider `O=C(NC(Nc1ccc(Cl)cc1)C(Cl)(Cl)Cl)c1ccco1` (stereo not drawn) [N-{2,2,2-trichloro-1-[(4-chlorophenyl)amino]ethyl}-2-furamide], for which the “% Antagonism” value was found to be 98% and the IC50 turned out to be 0.27 µM.
With `COc1ccc(NC(NC(=O)c2ccc(Br)cc2)C(Cl)(Cl)Cl)cc1` (stereo not drawn), the “% Antagonism” value came to 94% and the half-maximal inhibitory concentration (IC50) came out at 0.492 µM.
For `Cc1ccc(NC(NC(=O)c2ccc(Br)cc2)C(Cl)(Cl)Cl)cc1` (stereo not drawn) [4-bromo-N-(2,2,2-trichloro-1-(p-tolylamino)ethyl)benzamide], in that order: 100% and 0.073 µM.
In the case of `O=C(NC(Nc1ccc(Br)cc1)C(Cl)(Cl)Cl)c1ccco1` (stereo not drawn), the “% Antagonism” value turned out to be 98% and the half-inhibitory concentration (IC50) turned out to be 0.365 µM.
With `O=C(NC(Nc1ccc(Cl)cc1)C(Cl)(Cl)Cl)c1ccc(Cl)cc1` (stereo not drawn) [4-chloro-N-(2,2,2-trichloro-1-(4-chlorophenylamino)ethyl)benzamide], the “% Antagonism” value worked out at 100% and the IC50 is 0.145 µM.
Turning to `Cc1ccc(NC(NC(=O)c2ccco2)C(Cl)(Cl)Cl)cc1` (stereo not drawn) [Furan-2-carboxylic acid (2,2,2-trichloro-1-p-tolylamino-ethyl)-amide], the “% Antagonism” value is given as 100% and the 50% inhibitory concentration (IC50) worked out at 0.454 µM.
For `O=C(NC(Nc1ccc(Cl)cc1)C(Cl)(Cl)Cl)c1ccc(Cl)cn1` (stereo not drawn) [5-Chloro-N-(2,2,2-trichloro-1-(4-chlorophenylamino)ethyl)picolinamide], in that order: 98% and 0.0063 µM.
With `O=C(NC(Nc1ccc(Cl)cc1)C(Cl)(Cl)Cl)c1ccc(Br)cc1` (single isomer, unassigned; (-)) [(−)-4-bromo-N-(2,2,2-trichloro-1-(4-chlorophenylamino)ethyl)benzamide], the “% Antagonism” value was determined as 96% and the IC50 was 0.016 µM.
Consider `COc1ccc(C(=O)NC(Nc2ccc(C)cc2)C(Cl)(Cl)Cl)cc1` (stereo not drawn), for which the “% Antagonism” value was 98% and the IC50 turned out to be 0.466 µM.
For `O=C(NC(Nc1ccc(Cl)cc1)C(Cl)(Cl)Cl)c1cccc(Cl)c1` (stereo not drawn), in that order: 94% and 1.52 µM.
On to `O=C(NC(Nc1ccccc1F)C(Cl)(Cl)Cl)c1ccco1` (stereo not drawn) [N-{2,2,2-trichloro-1-[(2-fluorophenyl)amino]ethyl}-2-furamide], for which the “% Antagonism” value came out at 98% and the IC50 was determined as 1.1 µM.
Take `O=C(NC(Nc1ccc(Cl)cc1)C(Cl)(Cl)Cl)c1cc(Br)co1` (stereo not drawn) [4-bromo-N-(2,2,2-trichloro-1-(4-chlorophenylamino)ethyl)furan-2-carboxamide]: the “% Antagonism” value came out at 90% and the half-inhibitory concentration (IC50) is 0.0095 µM.
In the case of `O=C(NC(Nc1ccc(Cl)cc1)C(F)(F)F)c1ccc(Br)cn1` (stereo not drawn) [5-Bromo-N-(1-(4-chlorophenylamino)-2,2,2-trifluoroethyl)picolinamide], the “% Antagonism” value turned out to be 99% and the half-inhibitory concentration (IC50) came out at 0.0047 µM.
On to `O=C(NC(Nc1ccc([N+](=O)[O-])cc1)C(Cl)(Cl)Cl)c1ccc(Cl)cc1` (stereo not drawn), for which the “% Antagonism” value was 93% and the IC50 worked out at 1.37 µM.
As to `O=C(NC(Nc1ccc(Cl)cc1)C(Cl)(Cl)Cl)c1ccc(Br)cc1` (stereo not drawn) [4-bromo-N-(2,2,2-trichloro-1-(4-chlorophenylamino)ethyl)benzamide], the “% Antagonism” value is 96% and the IC50 turned out to be 0.028 µM.
Take `O=C(NC(Nc1cccc(F)c1)C(Cl)(Cl)Cl)c1ccco1` (stereo not drawn) [N-{2,2,2-trichloro-1-[(3-fluorophenyl)amino]ethyl}-2-furamide]: the “% Antagonism” value amounted to 100% and the IC50 turned out to be 0.363 µM.
Take `O=C(NC(Nc1ccc(Cl)cc1)C(Br)(Br)Br)c1ccc(Br)cc1` (stereo not drawn) [4-bromo-N-(2,2,2-tribromo-1-(4-chlorophenylamino)ethyl)benzamide]: the “% Antagonism” value worked out at 100% and the IC50 came out at 0.098 µM.
Consider `O=C(NC(Nc1ccc(Cl)cc1)C(Cl)(Cl)Cl)c1ccc(F)c(F)c1` (stereo not drawn) [3,4-difluoro-N-(2,2,2-trichloro-1-(4-chlorophenylamino)ethyl)benzamide], for which the “% Antagonism” value was 95% and the IC50 was determined as 0.256 µM.

Broadly, the IC50 is the concentration at which inhibition is half-maximal.
